Patent US7247617B2, “Sixteen-member macrolide antiinfective agents” (Kosan Biosciences Incorporated, priority 2004, dated 2007)

Legend:
S. aureus = test: Biological activity against bacterial strains: S. aureus; format: cell-based, Staphylococcus aureus; set-up: unit not given here; settings: for Biological Activity, S. aureus ATCC6538p: strain ATCC6538p; for Biological Activity, S. aureus ATCC14154*: strain ATCC14154, macrolide resistant strain; for Biological Activity, S. aureus ATCC29213: strain ATCC29213; for Biological Activity, S. aureus ATCC33591*: strain ATCC33591, macrolide resistant strain; for Biological Activity, S. aureus ATCCBAA-39*: strain ATCCBAA-39, macrolide resistant strain; for Biological Activity, S. aureus ATCCBAA-44*: strain ATCCBAA-44, macrolide resistant strain
S. pneumoniae = test: Biological activity against bacterial strains: S. pneumoniae; format: cell-based, Streptococcus pneumoniae; set-up: Biological Activity, S. pneumoniae ATCC6301 / Biological Activity, S. pneumoniae ATCC700671 / Biological Activity, S. pneumoniae ATCC700676* / Biological Activity, S. pneumoniae ATCC700677* / Biological Activity, S. pneumoniae ATCC700905* / Biological Activity, S. pneumoniae ATCC700906* / Biological Activity, S. pneumoniae ATCC49619: unit not given here; settings: for Biological Activity, S. pneumoniae ATCC6301: strain ATCC6301; for Biological Activity, S. pneumoniae ATCC49619: strain ATCC49619; for Biological Activity, S. pneumoniae ATCC700671: strain ATCC700671; for Biological Activity, S. pneumoniae ATCC700676*: strain ATCC700676, macrolide resistant strain; for Biological Activity, S. pneumoniae ATCC700677*: strain ATCC700677, macrolide resistant strain; for Biological Activity, S. pneumoniae ATCC700905*: strain ATCC700905, macrolide resistant strain; for Biological Activity, S. pneumoniae ATCC700906*: strain ATCC700906, macrolide resistant strain
E. faecalis = test: Biological activity against bacterial strains: E. faecalis; format: cell-based, Enterococcus faecalis; settings: strain ATCC51575
S. epidermidis = test: Biological activity against bacterial strains: S. epidermidis; format: cell-based, Staphylococcus epidermidis; settings: strain ATCC12228

Structure (SMILES)	Biological Activity, S. aureus ATCC6538p (S. aureus)	Biological Activity, S. aureus ATCC14154* (S. aureus)	Biological Activity, S. aureus ATCC29213 (S. aureus)	Biological Activity, S. aureus ATCC33591* (S. aureus)	Biological Activity, S. aureus ATCCBAA-39* (S. aureus)	Biological Activity, S. aureus ATCCBAA-44* (S. aureus)	Biological Activity, S. pneumoniae ATCC6301 (S. pneumoniae)	Biological Activity, S. pneumoniae ATCC49619 (S. pneumoniae)	Biological Activity, S. pneumoniae ATCC700671 (S. pneumoniae)	Biological Activity, S. pneumoniae ATCC700676* (S. pneumoniae)	Biological Activity, S. pneumoniae ATCC700677* (S. pneumoniae)	Biological Activity, S. pneumoniae ATCC700905* (S. pneumoniae)	Biological Activity, S. pneumoniae ATCC700906* (S. pneumoniae)	Biological Activity, E. faecalis ATCC51575 (E. faecalis)	Biological Activity, S. epidermidis ATCC12228 (S. epidermidis)
CCC1OC(=O)CC(O)C(C)C(OC2OC(C)C(O)C(N(C)C)C2O)C(CCN2CC(C)CC(C)C2)CC(C)C(=NOCCCOc2ccc3ncccc3c2)C=CC(C)=CC1CO (stereo not drawn) [Compound S]	>12.5	>12.5	>12.5	>12.5	>12.5	>12.5	6.25	6.25	6.25	12.5	>12.5	12.5	>12.5	>12.5	>12.5
CC[C@H]1OC(=O)C[C@@H](O)[C@H](C)[C@@H](O[C@@H]2O[C@H](C)[C@@H](O)[C@H](N(C)C)[C@H]2O)[C@@H](CCN2C[C@H](C)C[C@H](C)C2)C[C@@H](C)C(=O)/C=C/C(C)=C/[C@@H]1CO[C@@H]1O[C@H](C)[C@@H](O)[C@@H](OC)[C@H]1OC [Tilm, tilmicosin, reference compound]	0.098	0.39	0.20	>12.5	>12.5	>12.5	0.39	1.56	0.78	0.78	6.25	1.56	>12.5	>12.5	0.098
CCC1OC(=O)CC(O)C(C)C(OC2OC(C)C(O)C(N(C)C)C2O)C(CCN2CC(C)CC(C)C2)CC(C)C(=NOCCOc2ccccc2)C=CC(C)=CC1COC1OC(C)C(O)C(OC)C1OC (stereo not drawn) [Compound O]	0.20	0.78	0.39	>12.5	>12.5	>12.5	0.39	0.78	0.39	1.56	6.25	0.78	12.5	>12.5	0.39
CCC1OC(=O)CC(O)C(C)C(OC2OC(C)C(O)C(N(C)C)C2O)C(CC=O)CC(C)C(=NOCC=Cc2cnc3ccccc3c2)C=CC(C)=CC1CO (single isomer, unassigned) [Compound G]	0.20	0.78	0.78	>12.5	>12.5	>12.5	0.025	0.025	0.025	0.049	>12.5	0.049	>12.5	>12.5	0.39
